How the values were obtained:
SF-295 = experiment: NCI one-dose screening, CNS cancer SF-295; assay type: cell-based, human; settings: 10 μM
PC-3 = experiment: NCI one-dose screening, prostate cancer PC-3; assay type: cell-based, human; settings: 10 μM
UACC-62 = experiment: NCI one-dose screening, melanoma UACC-62; assay type: cell-based, human; settings: 10 μM
HS 578-T = experiment: NCI one-dose screening, breast cancer HS 578-T; assay type: cell-based, human; settings: 10 μM; Breast cancer
DU145 = experiment: NCI one-dose screening, prostate cancer DU145; assay type: cell-based, human; settings: 10 μM
HL-60, TB = experiment: NCI one-dose screening, leukemia HL-60, TB; assay type: cell-based, human; settings: 10 μM
SNB-19 = experiment: NCI one-dose screening, CNS cancer SNB-19; assay type: cell-based, human; settings: 10 μM
SF-268 = experiment: NCI one-dose screening, CNS cancer SF-268; assay type: cell-based, human; settings: 10 μM
NCl/ADR-RES = experiment: NCI one-dose screening, breast cancer NCl/ADR-RES; assay type: cell-based, human; settings: 10 μM; listed under Ovarian cancer
HCC-2998 = experiment: NCI one-dose screening, colon cancer HCC-2998; assay type: cell-based, human; settings: 10 μM
EKVX = experiment: NCI one-dose screening, non-small cell lung cancer EKVX; assay type: cell-based, human; settings: 10 μM
COLO 205 = experiment: NCI one-dose screening, colon cancer COLO 205; assay type: cell-based, human; settings: 10 μM
M14 = experiment: NCI one-dose screening, melanoma M14; assay type: cell-based, human; settings: 10 μM
SK-MEL-5 = experiment: NCI one-dose screening, melanoma SK-MEL-5; assay type: cell-based, human; settings: 10 μM
A549/ATCC = experiment: NCI one-dose screening, non-small cell lung cancer A549/ATCC; assay type: cell-based, human; settings: 10 μM
ACHN = experiment: NCI one-dose screening, renal cancer ACHN; assay type: cell-based, human; settings: 10 μM
786-O = experiment: NCI one-dose screening, renal cancer 786-O; assay type: cell-based, human; settings: 10 μM
K562cell line = experiment: NCI one-dose screening, leukemia K562; assay type: cell-based, human; settings: 10 μM
HCT-116 = experiment: NCI one-dose screening, colon cancer HCT-116; assay type: cell-based, human; settings: 10 μM
UACC-257 = experiment: NCI one-dose screening, melanoma UACC-257; assay type: cell-based, human; settings: 10 μM
OVCAR-4 = experiment: NCI one-dose screening, ovarian cancer OVCAR-4; assay type: cell-based, human; settings: 10 μM
UO-31 = experiment: NCI one-dose screening, renal cancer UO-31; assay type: cell-based, human; settings: 10 μM
NCI-H460 = experiment: NCI one-dose screening, non-small cell lung cancer NCI-H460; assay type: cell-based, human; settings: 10 μM
MDA-MB-468 = experiment: NCI one-dose screening, breast cancer MDA-MB-468; assay type: cell-based, human; settings: 10 μM
SN12C = experiment: NCI one-dose screening, renal cancer SN12C; assay type: cell-based, human; settings: 10 μM
MDA-MB-231/ATCC = experiment: NCI one-dose screening, breast cancer MDA-MB-231/ATCC; assay type: cell-based, human; settings: 10 μM
HCT-15 = experiment: NCI one-dose screening, colon cancer HCT-15; assay type: cell-based, human; settings: 10 μM
RXF, 393 = experiment: NCI one-dose screening, renal cancer RXF, 393; assay type: cell-based, human; settings: 10 μM
HT29 = experiment: NCI one-dose screening, colon cancer HT29; assay type: cell-based, human; settings: 10 μM
[1] = system: PC-3 prostate cancer cell line; experiment: SRB assay cell viability, PC-3 prostate cancer cell line; assay type: cell-based, human; settings: Homo sapiens, PC-3 prostate cancer cell line, Table II prints no unit, μM printed, read-out: SRB assay: 50% inhibition of cancer cell proliferation of sample concentration (IC50) of PC-3 prostate cancer cell line
CAKI-1 = experiment: NCI one-dose screening, renal cancer CAKI-1; assay type: cell-based, human; settings: 10 μM
PRMI-8226 cell line = experiment: NCI one-dose screening, leukemia PRMI-8226; assay type: cell-based, human; settings: 10 μM
SNB-75 = experiment: NCI one-dose screening, CNS cancer SNB-75; assay type: cell-based, human; settings: 10 μM
HOP-62 = experiment: NCI one-dose screening, non-small cell lung cancer HOP-62; assay type: cell-based, human; settings: 10 μM
U251 = experiment: NCI one-dose screening, CNS cancer U251; assay type: cell-based, human; settings: 10 μM
NCI-H522 = experiment: NCI one-dose screening, non-small cell lung cancer NCI-H522; assay type: cell-based, human; settings: 10 μM
OVCAR-3 = experiment: NCI one-dose screening, ovarian cancer OVCAR-3; assay type: cell-based, human; settings: 10 μM
MOLT-4 = experiment: NCI one-dose screening, leukemia MOLT-4; assay type: cell-based, human; settings: 10 μM
HOP-92 = experiment: NCI one-dose screening, non-small cell lung cancer HOP-92; assay type: cell-based, human; settings: 10 μM
OVCAR-5 = experiment: NCI one-dose screening, ovarian cancer OVCAR-5; assay type: cell-based, human; settings: 10 μM
BT-549 = experiment: NCI one-dose screening, breast cancer BT-549; assay type: cell-based, human; settings: 10 μM
human tumor cell lines = experiment: NCI one-dose screening, Mean / Delta / Range of growth percent over all tested cell lines; assay type: cell-based; settings: 10 μM
MCF7 = experiment: NCI one-dose screening, breast cancer MCF7; assay type: cell-based, human; settings: 10 μM
SK-MEL-28 = experiment: NCI one-dose screening, melanoma SK-MEL-28; assay type: cell-based, human; settings: 10 μM
NCI-H322M = experiment: NCI one-dose screening, non-small cell lung cancer NCI-H322M; assay type: cell-based, human; settings: 10 μM; Non-small cell lung cancer
SK-MEL-2 = experiment: NCI one-dose screening, melanoma SK-MEL-2; assay type: cell-based, human; settings: 10 μM
MALME-3M = experiment: NCI one-dose screening, melanoma MALME-3M; assay type: cell-based, human; settings: 10 μM
SR = experiment: NCI one-dose screening, leukemia SR; assay type: cell-based, human; settings: 10 μM
NCI-H23 = experiment: NCI one-dose screening, non-small cell lung cancer NCI-H23; assay type: cell-based, human; settings: 10 μM
KM12 = experiment: NCI one-dose screening, colon cancer KM12; assay type: cell-based, human; settings: 10 μM
NCI-H226 = experiment: NCI one-dose screening, non-small cell lung cancer NCI-H226; assay type: cell-based, human; settings: 10 μM
MDA, -MB-435 = experiment: NCI one-dose screening, breast cancer MDA, -MB-435; assay type: cell-based, human; settings: 10 μM; listed under Melanoma
SF-539 = experiment: NCI one-dose screening, CNS cancer SF-539; assay type: cell-based, human; settings: 10 μM
T-47D = experiment: NCI one-dose screening, breast cancer T-47D; assay type: cell-based, human; settings: 10 μM
LOX IMVI = experiment: NCI one-dose screening, melanoma LOX IMVI; assay type: cell-based, human; settings: 10 μM
OVCAR-8 = experiment: NCI one-dose screening, ovarian cancer OVCAR-8; assay type: cell-based, human; settings: 10 μM
IGROV1 = experiment: NCI one-dose screening, ovarian cancer IGROV1; assay type: cell-based, human; settings: 10 μM
TK-10 = experiment: NCI one-dose screening, renal cancer TK-10; assay type: cell-based, human; settings: 10 μM
CCRF-CEM = experiment: NCI screening platform one-dose single concentration screening, leukemia CCRF-CEM; assay type: cell-based, human; settings: 10 μM

## O=C1c2ccccc2C(=O)c2c1cc(Nc1ccc(Cl)cc1)c1nsnc21 [C60, 4-(4-chloro-phenylamino)anthra[2,1-c] [1,2,5]thiadiazol-6,11-dione]
SF-295
  Growth Percent SF-295: 78.76%
PC-3
  Growth Percent PC-3: 42.48%
UACC-62
  Growth Percent UACC-62: 64.65%
HS 578-T
  Growth Percent HS 578T: 76.50%
DU145
  Growth Percent DU145: 87.28%
HL-60, TB
  Growth Percent HL-60(TB): 23.13%
SNB-19
  Growth Percent SNB-19: 87.03%
SF-268
  Growth Percent SF-268: 63.91%
NCl/ADR-RES
  Growth Percent NCI/ADR-RES: 55.91%
HCC-2998
  Growth Percent HCC-2998: 91.26%
EKVX
  Growth Percent EKVX: 81.16%
COLO 205
  Growth Percent COLO 205: 94.87%
M14
  Growth Percent M14: 106.75%
SK-MEL-5
  Growth Percent SK-MEL-5: 29.92%
A549/ATCC
  Growth Percent A549/ATCC: 72.79%
ACHN
  Growth Percent ACHN: 70.10%
786-O
  Growth Percent 786-0: 95.95%
K562cell line
  Growth Percent K562: 32.82%
HCT-116
  Growth Percent HCT-116: 40.51%
UACC-257
  Growth Percent UACC-257: 69.64%
OVCAR-4
  Growth Percent OVCAR-4: 9.58%
UO-31
  Growth Percent UO-31: 49.04%
NCI-H460
  Growth Percent NCI-H460: 29.27%
MDA-MB-468
  Growth Percent MDA-MB-468: 32.52%
SN12C
  Growth Percent SN12C: 81.98%
MDA-MB-231/ATCC
  Growth Percent MDA-MB-231/ATCC: 57.00%
HCT-15
  Growth Percent HCT-15: 37.73%
RXF, 393
  Growth Percent RXF 393: 66.60%
HT29
  Growth Percent HT29: 91.07%
[1]
  IC50: 9.5 µM
CAKI-1
  Growth Percent CAKI-1: 58.59%
PRMI-8226 cell line
  Growth Percent RPMI-8226: 36.51%
SNB-75
  Growth Percent SNB-75: 69.41%
HOP-62
  Growth Percent HOP-62: 71.23%
U251
  Growth Percent U251: 35.47%
NCI-H522
  Growth Percent NCI-H522: 49.77%
OVCAR-3
  Growth Percent OVCAR-3: 76.23%
MOLT-4
  Growth Percent MOLT-4: 11.82%
HOP-92
  Growth Percent HOP-92: 88.03%
OVCAR-5
  Growth Percent OVCAR-5: 121.21%
BT-549
  Growth Percent BT-549: 96.78%
Human tumor cell lines; delta over all cell lines
  Growth Percent Delta: 53.61%
Human tumor cell lines; mean over all cell lines
  Growth Percent Mean: 63.19%
Human tumor cell lines; range over all cell lines
  Growth Percent Range: 111.63%
MCF7
  Growth Percent MCF7: 59.01%
SK-MEL-28
  Growth Percent SK-MEL-28: 77.13%
NCI-H322M
  Growth Percent NCI-H322M: 91.20%
SK-MEL-2
  Growth Percent SK-MEL-2: 84.09%
MALME-3M
  Growth Percent MALME-3M: 61.29%
SR
  Growth Percent SR: 19.52%
NCI-H23
  Growth Percent NCI-H23: 58.67%
KM12
  Growth Percent KM12: 71.40%
NCI-H226
  Growth Percent NCI-H226: 66.43%
MDA, -MB-435
  Growth Percent MDA-MB-435: 72.21%
SF-539
  Growth Percent SF-539: 69.85%
T-47D
  Growth Percent T-47D: 65.23%
LOX IMVI
  Growth Percent LOX IMVI: 27.09%
OVCAR-8
  Growth Percent OVCAR-8: 45.71%
IGROV1
  Growth Percent IGROV1: 55.18%
TK-10
  Growth Percent TK-10: 100.37%
CCRF-CEM
  Growth Percent CCRF-CEM: 44.80%
